From patent publication US20200155490A1, “IMMUNOMOUDULATORY AGENTS AND METHODS OF USE THEREOF” (priority 2016, published 2020)
Entries after “also recorded” stand apart in the source; their conditions may differ.

How the values were obtained:
[1] = test system: NLRP3 inflammasome in BMDM; experiment: NLRP3 inflammasome activation in BMDM (LPS priming + ATP, nigericin or MSU); format: cell-based, mouse; details: for production of IL-18: then ATP 3 mM 45 min; for protein expression of pro-IL-1β: 0.25 mM 12 h
Method: (§1) The concentration of cytokines in culture supernatants was determined using the following kits according to manufacturer's instructions. DuoSet® kits for mouse IL-1β/IL-1F2, TNF-α and IL-6 (all R&D systems); mouse IL-12 ELISA MAX™ Deluxe Set (BioLegend); mouse IL-18 ELISA kit (MBL). Nitric oxide was quantified using Griess Reagent System (Promega).
(§2) BMDM were stimulated as indicated, washed with PBS, lysed in RIPA Lysis Buffer System (Santa Cruz) and boiled in sample loading buffer containing SDS and 100 mM DTT. Proteins were separated by electrophoresis through 4-20% polyacrylamide gradient gels (BioRad). After electrophoretic transfer of proteins onto PVDF membranes, nonspecific binding was blocked by incubation with 5% skim milk and membranes were probed with primary antibodies anti-IL1β (1:1000 dilution; 12507S, CellSignaling), NIrp3 (1:500 dilution; NBP2-12446, Novus), HIF-1α (1:500 dilution; NB100-449, Novus), α-tubulin (1:2000 dilution; 2125S, CellSignaling), ASC (1:1000 dilution; sc-22514-R, Santa Cruz) followed by incubation with secondary antibodies (horseradish peroxidase-conjugated anti-rabbit, 1:10,000 dilution; sc-2030, Santa Cruz) and visualized with Clarity™ western ECL substrate (Biorad).

[2] = test system: bone marrow-derived macrophage (BMDM); experiment: Activation of BMDM with LPS or LPS+IFN-γ (cytokines, iNOS, HIF-1α); format: cell-based, mouse
Method: Cells were incubated with FcγR-blocking anti-CD16/32 (clone 93, Biolegend) before staining with antibodies to F4/80 (clone BM8, eBioscience) and CD11b (clone M1/70; BD Pharmingen) together with LIVE/DEAD dye (Invitrogen). […] Cells were acquired on a Canto II flow cytometer (BD Biosciences) and data were analyzed using FlowJo v.9.5.2 software (Tree Star).
as §1, §2

[3] = test system: AIM2-inflammasome in BMDM; experiment: AIM2-inflammasome activation in BMDM (poly dA:dT transfection); format: cell-based, mouse; details: DI 12 h, 5 h
Method: as §1

[4] = test system: BMDM infected with S. typhimurium; experiment: In vitro infection of BMDM with Salmonella typhimurium; format: cell-based, mouse
unstimulated BMDM = experiment: Extracellular flux analysis (Seahorse); format: cell-based, mouse; details: 0.25 mM DI 12 h
Method: Extracellular acidification rate (ECAR) and Oxygen Consumption rate (OCR) were measured in real time using Seahorse technology as described previously.

[5] = test system: myocardial ischemia-reperfusion injury; experiment: Myocardial ischemia-reperfusion model; format: in vivo, mice; details: for myocardial infarct size: 30 min ischemia, 2 h reperfusion, intravenous infusion during ischemia
Method: In vivo ischemia-reperfusion modeling was performed as previously described. 8 to 10 week-old mice were anesthetized and subjected to an open chest procedure of reversible left anterior descending artery ligation for 30 min and subsequent reperfusion for 2 hours. Saline or DI (4 mg/Kg/min) was infused intravenously for 10 min before and throughout the ischemic period. A cardioplegic solution followed by TTC at 37° C. and then Evans Blue (after reocclusion of the LAD) was injected in a retrograde manner through the aorta in situ. The left ventricle was then sectioned into 5 slices and image analysis was performed with Image J (NIH).

[6] = test system: mitochondrial ROS in BMDM; experiment: Measurement of mROS (MitoSOX) in BMDM; format: cell-based, mouse; details: 0.25 mM 12 h, LPS 100 ng/ml; MitoSOX flow cytometry
Method: Cells were incubated with DI (0.25 mM, 12 h) or vehicle and then loaded with 5 μM of the mitochondrial superoxide indicator MitoSOX (Invitrogen) at 37° C. for 30 min in HBSS supplemented with 0.1% BSA. Cells were then rinsed with warm culture medium and LPS treatment was started 1 h later. Cells were harvested and analyzed on a Canto II flow cytometer (Becton-Dickinson).

[7] = test system: bone-marrow derived macrophages; experiment: Cell viability of bone-marrow derived macrophages; format: cell-based, mouse
Method: Live cells were determined via flow cytometry using a live/dead cell fluorescent dye. Shown are representative data from three independent experiments.
Cells were incubated with FcγR-blocking anti-CD16/32 (clone 93, Biolegend) before staining with antibodies to F4/80 (clone BM8, eBioscience) and CD11b (clone M1/70; BD Pharmingen) together with LIVE/DEAD dye (Invitrogen). Intracellular iNOS was detected with mouse anti-NOS2 (clone C-11, Santa Cruz Biotechnology) followed by incubation with fluorochrome-conjugated anti-mouse IgG (Clone A85-1, BD Pharmingen) using the BD cytofix/cytoperm Kit (BD Biosciences) according to manufacturer's instructions. Cells were acquired on a Canto II flow cytometer (BD Biosciences) and data were analyzed using FlowJo v.9.5.2 software (Tree Star).

[8] = test system: naïve CD4 T cells under Th17 polarizing conditions; experiment: Th17 differentiation of naïve CD4 T cells; format: cell-based, C56BL/6 mice; details: for frequency of IL-17-producing cells (Th17 differentiation): Th17 polarizing conditions; for frequency of IL-17-producing cells (Th17 differentiation) / cytotoxic effect (frequency of live CD4 T cells): flow cytometry; for cytotoxic effect (frequency of live CD4 T cells): day 4 after Th17 polarization
Method: FIG. 25C is a series of plots showing DI inhibits also the secretion of IL-17 (left) and GM-CSF (right) in the supernatant of CD4 T cells. On day 4 cells were collected, washed, and re-stimulated in equal numbers for each condition with anti-CD3 and anti-CD28. After 24 h supernatants were collected and assayed for IL-17 and GM-CSF by ELISA.

[9] = test system: anti-CD3-induced inflammation; experiment: Anti-CD3-induced inflammation in mice (serum IL-17); format: in vivo; details: 4 mg or 20 mg DI ip, 48 h after anti-CD3, ELISA
Method: FIG. 26A is a plot showing DI-treatment diminished in vivo systemic IL-17 production. Circulating serum IL-17 levels were determined by ELISA 48 h after anti-CD3-induced inflammation in mice treated or not with the indicated doses of DI. Briefly, mice were received intraperitoneal (ip) injections of 4 mg (n=10) or 20 mg (n=5) DI or vehicle (PBS; shown as 0; n=10) 3 h prior (−3 h) to an anti-CD3 injection (given at 0 h ip) and every 20 h thereafter until mice were analyzed at 48 h.

[10] = test system: IMQ-induced skin inflammation; experiment: Imiquimod (IMQ)-induced psoriasis model; format: in vivo; details: mouse ear skin, 20 mg DI ip daily, IMQ cream 7 days
Method: IMQ cream (5%) was applied on mouse ear skin for 7 days and skin pathology was assessed on day 8. Mice received 20 mg DI ip. (DI+IMQ) or vehicle ip (PBS; IMQ) was administered one day prior to IMQ application and every day thereafter until day 7. DI group: received 20 mg DI as above but no IMQ; naïve mice received vehicle as above but no IMQ.

[11] = test system: neonatal rat cardiac myocytes; experiment: Hypoxia modeling in neonatal rat cardiac myocytes; details: NRCMs, hypoxia 24 h, DI pretreatment
Method: Neonatal rat cardiac myocytes were isolated and cultured as described. Cells were subjected to hypoxia in an oxygen control cabinet (Coy Laboratories, Grass Lake, Mich.) mounted within an incubator and equipped with oxygen controller and sensor for continuous oxygen level monitoring. […] Cell death was assessed with the Live-Dead Cytotoxicity Viability kit for Mammalian cells (Invitrogen) and ROS generation was monitored by flow cytometric assessment of carboxy-H2DCFDA fluorescence (following incubation in 10 μmol/L for 30 minutes), as previously described.

[12] = test system: bone marrow-derived macrophage (BMDM); experiment: RNA-seq transcriptional profiling of LPS-stimulated BMDM; details: for pro-inflammatory transcripts / inflammatory markers (Nos2, II6, II12b etc.): 0.25 mM 12 h pretreatment, LPS 100 ng/ml 4 h
[13] = molecular target: T1, succinate dehydrogenase (Sdh) (Mus musculus, UniProt Q8K2B3); experiment: Sdh activity assay (Complex II Enzyme Activity Microplate Assay); format: biochemical; details: Sdh purified from BV2 cells or BMDM
T1 construct: Sdh was purified from BV2 cells (a macrophage cell line) or BMDM; endogenous in cells; host or cells: BV2 cells (macrophage cell line) or mouse BMDM; in-well capture with the Abcam Complex II Enzyme Activity Microplate Assay Kit
T1 sequence (Q8K2B3 43-664): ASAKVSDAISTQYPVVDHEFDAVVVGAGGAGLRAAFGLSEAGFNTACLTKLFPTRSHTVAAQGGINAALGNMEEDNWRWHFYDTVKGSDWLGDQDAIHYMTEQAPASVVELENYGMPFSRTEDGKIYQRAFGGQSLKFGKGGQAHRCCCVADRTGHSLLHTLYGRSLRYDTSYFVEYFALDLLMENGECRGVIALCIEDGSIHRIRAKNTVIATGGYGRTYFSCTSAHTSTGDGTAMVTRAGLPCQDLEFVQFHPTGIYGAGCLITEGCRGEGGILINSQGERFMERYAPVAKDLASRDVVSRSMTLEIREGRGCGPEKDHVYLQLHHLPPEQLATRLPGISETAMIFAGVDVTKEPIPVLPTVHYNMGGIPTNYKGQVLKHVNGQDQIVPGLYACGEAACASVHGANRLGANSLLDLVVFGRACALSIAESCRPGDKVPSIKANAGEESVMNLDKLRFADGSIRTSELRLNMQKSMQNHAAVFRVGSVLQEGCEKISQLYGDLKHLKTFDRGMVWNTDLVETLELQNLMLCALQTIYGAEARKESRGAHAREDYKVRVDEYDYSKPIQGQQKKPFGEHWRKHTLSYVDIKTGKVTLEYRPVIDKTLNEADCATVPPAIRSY
T1 sequence (Q9CQA3 31-282 partner): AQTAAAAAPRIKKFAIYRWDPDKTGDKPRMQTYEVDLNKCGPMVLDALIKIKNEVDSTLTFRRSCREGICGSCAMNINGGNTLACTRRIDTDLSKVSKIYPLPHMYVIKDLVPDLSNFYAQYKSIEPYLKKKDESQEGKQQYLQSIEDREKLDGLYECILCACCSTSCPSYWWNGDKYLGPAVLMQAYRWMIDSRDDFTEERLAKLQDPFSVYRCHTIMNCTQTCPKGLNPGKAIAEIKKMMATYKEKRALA
T1 sequence (Q9CZB0 30-169 partner): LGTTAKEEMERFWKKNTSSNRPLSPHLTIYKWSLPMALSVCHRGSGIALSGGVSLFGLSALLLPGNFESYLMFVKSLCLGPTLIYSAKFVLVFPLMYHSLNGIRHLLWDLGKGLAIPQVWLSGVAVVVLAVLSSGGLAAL
T1 sequence (Q9CXV1 57-159 partner): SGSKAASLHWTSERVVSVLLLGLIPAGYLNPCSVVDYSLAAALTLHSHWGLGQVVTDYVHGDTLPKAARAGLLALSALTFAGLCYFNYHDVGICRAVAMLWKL
Method: The test compounds were diluted in activity buffer and added to the phospholipid mixture 5 min before adding the activity solution. Absorbance was measured at 600 nm.

[14] = test system: Mycobacterium tuberculosis (Mtb) H37Rv in BMDM; experiment: Infection of BMDM with Mycobacterium tuberculosis H37Rv; format: cell-based
Method: To address this question, BMMDs were infected with Mycobacterium tuberculosis (Mtb) H37Rv strain (MOI of 1). Three treatment groups were set up: untreated macrophages, macrophages pretreated with interferon, and macrophages pretreated with interferon and then treated with itaconate. The infection was then allowed to proceed for 7 days. On day 7 post infection, serial dilutions of infected BMDM homogenates were plated on 7H11 agar plates and colony forming unit (CFU) determined.

Salmonella infection = Salmonella infection in vivo; details: treated vs untreated mice; i.v. administration
[15] = 12 h pretreatment, LPS 100 ng/ml 4 h
[16] = BMDM pretreated with DI (12 h; 0.25 mM), LPS 24 h
[17] = Western blot, LPS 4 h, ATP 45 min
[18] = Western blot, DI 0.25 mM 12 h, LPS 4 h, ATP 45 min
[19] = BMDM pre-treated with 0.25 mM DI 12 h, infected with live S. typhimurium
[20] = day 4 cells re-stimulated with anti-CD3 and anti-CD28, 24 h, ELISA

## COC(=O)CC(=O)OC [dimethyl malonate, reference compound]
[1]; [15]
  production of IL-18: inhibited

## C=C(CC(=O)OC)C(=O)OC [DI, dimethyl itaconate]
[2]; BMDM pretreated with DI 12 h, then LPS and IFN-γ 24 h
  IL-12p70 secretion: suppressed
[2]; [16]
  IL-6 secretion: suppressed
  TNF-α production: remained unchanged
[2]; BMDM pretreated with DI (12 h; 0.25 mM), then LPS and IFN-γ 24 h, flow cytometry
  iNOS protein expression: suppressed
[1]; [15]
  production of IL-18: potently inhibited
[1]; 12 h pretreatment, LPS 100 ng/ml 4 h, then ATP, nigericin or MSU
  production of mature IL-1β: potently inhibited
[1]; DI 0.25 mM 12 h, LPS 4 h, ATP 3 mM 45 min, live/dead dye
  inflammasome-induced cytotoxicity: only moderately
[1]; [17]
  protein expression of pro-IL-1β: decreased
[1]; [18]
  protein expression of ASC: decreased
  protein expression of NLRP3: decreased
[3]
  IL-1β production following AIM-2-dependent inflammasome activation: impaired
[4]; [19]
  TNF-α levels: only marginally affected
  production of IL-1β: virtually abrogated
  production of IL-6: virtually abrogated
  production of nitric oxide (NO): virtually abrogated
[4]; DI-treated vs control BMDM, S. typhimurium
  number of intracellular bacteria: comparable
Unstimulated BMDM
  extracellular acidification rate (ECAR): increased
[5]; DI vs saline group
  area-at-risk: similar
[5]; mice
  myocardial infarct size: markedly reduced
[5]; mice, DI 4 mg/Kg/min i.v. 10 min before and throughout ischemia
  reduction in infarct size: 42%
[6]
  LPS-induced upregulation of mROS: impaired
[7]
  concentration up to which not toxic: up to 0.5 mM
[8]
  frequency of IL-17-producing cells (Th17 differentiation): dose-dependently inhibits
  cytotoxic effect (frequency of live CD4 T cells): moderate dose-dependent cytotoxic effect
[8]; [20]
  secretion of GM-CSF: inhibits
  secretion of IL-17: inhibits
[9]
  in vivo systemic IL-17 production (circulating serum IL-17): diminished
[10]; H&E day 8
  dermal edema: prevents dermal edema
[10]; assessed day 8
  IL-17 associated pathology: limits IL-17 associated pathology
[11]
  hypoxia-induced cell death: dose-dependent protection
  hypoxia-induced increase in ROS generation: attenuated
[12]
  pro-inflammatory transcripts / inflammatory markers (Nos2, II6, II12b etc.): down-regulation
[12]; DI 0.25 mM 12 h, LPS 4 h
  expression of LPS-regulated genes involved in inflammasome function (II1b, II18, P2rx7, Casp1, Pycard): modulated

## O=C(O)CC(=O)O [malonate, reference compound]
[13]
  activity of purified Sdh: blocked the activity of Sdh in a dose-dependent manner
[5]; mice
  myocardial infarct size: reduces infarct size

## C=C(CC(=O)O)C(=O)O [itaconate, itaconic acid]
[1]; [17]
  protein expression of pro-IL-1β: significantly decreased
[13]
  activity of purified Sdh: blocked the activity of Sdh in a dose-dependent manner
[5]; mice
  myocardial infarct size: reduces infarct size
[6]
  LPS-induced upregulation of mROS: impaired
[14]; BMDM pretreated with interferon, Mtb MOI of 1, day 7 post infection
  bacterial burden in the cells (CFU): increased
[14]; Mtb-infected BMDM, data not shown
  II1b levels in the supernatants: decreased
[8]
  frequency of IL-17-producing cells (Th17 differentiation): dose-dependently inhibits
  cytotoxic effect (frequency of live CD4 T cells): not cytotoxic
[8]; all acids at 5 mM, day 3 post polarization
  inhibition of Th17 compared with structurally similar dicarboxylic acids: structure specific
Salmonella infection
  mortality from Salmonella infection: succumb to Salmonella infection faster; also recorded: significantly accelerates mortality
[12]
  pro-inflammatory transcripts / inflammatory markers (Nos2, II6, II12b etc.): significantly decreased
